# According to patent US20100022648A1, “ORAL USE OF AT LEAST ONE MONOUNSATURATED FATTY ACID FOR HAIR IMPROVEMENT” (L'OREAL, priority 2006, published 2010):
# Marks after values point to notes of the source that are not given here.
# System: dermal fibroblasts
# Assay: Formation of glycation products in cultures of dermal fibroblasts (Dot Blot immunodetection, densitometric analysis)
# Format: cell-based
# Conditions: culture of dermal fibroblasts; for % GP relative to the control: GP = glycation products, Aminoguanidine 1 mg/ml, Petroselinic acid 0.885 mM, control = 100, p < 0.01; for decrease in the formation of glycation products relative to the control: same concentrations as Table 1
# Method: Dermal fibroblasts are cultured by the usual techniques that are well known by a person skilled in the art.
# The glycation products are quantified by densitometric analysis of the spots in immunodetection of the glycation products (Dot Blot method), relative to a control (culture of fibroblasts without addition of the product).
# Thus, aminoguanidine reduces the amount of glycation product relative to the control by 58%.
# In another case, the culture of fibroblasts is supplemented with petroselinic acid.
SMILES,% GP relative to the control,% GP relative to the control (listed as petroselinic acid) [%],decrease in the formation of glycation products relative to the control [%],% GP relative to the control (listed as aminoguanidine) [%]
"CCCCCCCCCCC/C=C\CCCCC(=O)O [Petroselinic acid, petroselinic acid]",73* %,73,27,
"N=C(N)NN [Aminoguanidine, aminoguanidine]",42* %,,58,42
